Measurements as given in ChEMBL document CHEMBL1909294, “Translating clinical findings into knowledge in drug safety evaluation--drug induced liver injury prediction system (DILIps)” (PLoS Comput Biol, 2011).

Assays:
Hepatotoxicity [1] = tested on: Hepatotoxicity;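 as to HepSE bilirubinemia: bilirubinemia hepatic side effect score drawn from the DILIps training data, a prediction system for drug-induced liver injury; call rule not given here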;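 as to HepSE cholecystitis: Cholecystitis-related hepatic side effect score drawn from the DILIps (drug-induced liver injury prediction) training data set; call rule not given here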;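 as to HepSE cholelithiasis: hepatic side effect score for cholelithiasis, drawn from the DILIps training data for predicting drug-induced liver injury; call rule not given here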;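 as to HepSE cirrhosis: cirrhosis hepatic side effect score taken from the DILIps (drug-induced liver injury prediction) training set; call rule not given here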;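 as to HepSE elevated liver function tests: hepatic side effect score for raised liver function tests, as recorded in the DILIps training set used for predicting drug-induced liver injury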; as to HepSE hepatic failure: call rule not given here;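 as to HepSE hepatomegaly: hepatic side effect score for hepatomegaly, taken from the training set of the DILIps drug-induced liver injury prediction system; call rule not given here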
Hepatotoxicity [2] = tested on: Hepatotoxicity; remark: listed apart in the source;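 as to HepSE bilirubinemia: bilirubinemia hepatic side effect score drawn from the DILIps training data, a prediction system for drug-induced liver injury; call rule not given here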;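 as to HepSE cholecystitis: Cholecystitis-related hepatic side effect score drawn from the DILIps (drug-induced liver injury prediction) training data set; call rule not given here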;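 as to HepSE cholelithiasis: hepatic side effect score for cholelithiasis, drawn from the DILIps training data for predicting drug-induced liver injury; call rule not given here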;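 as to HepSE cirrhosis: cirrhosis hepatic side effect score taken from the DILIps (drug-induced liver injury prediction) training set; call rule not given here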;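 as to HepSE elevated liver function tests: hepatic side effect score for raised liver function tests, as recorded in the DILIps training set used for predicting drug-induced liver injury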; as to HepSE hepatic failure: call rule not given here
Hepatotoxicity [3] = tested on: Hepatotoxicity; remark: listed apart in the source;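 as to HepSE bilirubinemia: bilirubinemia hepatic side effect score drawn from the DILIps training data, a prediction system for drug-induced liver injury; call rule not given here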;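 as to HepSE cholecystitis: Cholecystitis-related hepatic side effect score drawn from the DILIps (drug-induced liver injury prediction) training data set; call rule not given here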;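 as to HepSE cholelithiasis: hepatic side effect score for cholelithiasis, drawn from the DILIps training data for predicting drug-induced liver injury; call rule not given here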;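 as to HepSE cirrhosis: cirrhosis hepatic side effect score taken from the DILIps (drug-induced liver injury prediction) training set; call rule not given here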;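 as to HepSE elevated liver function tests: hepatic side effect score for raised liver function tests, as recorded in the DILIps training set used for predicting drug-induced liver injury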; as to HepSE hepatic failure: call rule not given here
Hepatotoxicity [4] = tested on: Hepatotoxicity; remark: listed apart in the source;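 as to HepSE bilirubinemia: bilirubinemia hepatic side effect score drawn from the DILIps training data, a prediction system for drug-induced liver injury; call rule not given here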;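 as to HepSE cholecystitis: Cholecystitis-related hepatic side effect score drawn from the DILIps (drug-induced liver injury prediction) training data set; call rule not given here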;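 as to HepSE cholelithiasis: hepatic side effect score for cholelithiasis, drawn from the DILIps training data for predicting drug-induced liver injury; call rule not given here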;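 as to HepSE cirrhosis: cirrhosis hepatic side effect score taken from the DILIps (drug-induced liver injury prediction) training set; call rule not given here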;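 as to HepSE elevated liver function tests: hepatic side effect score for raised liver function tests, as recorded in the DILIps training set used for predicting drug-induced liver injury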; as to HepSE hepatic failure: call rule not given here
Hepatotoxicity [5] = tested on: Hepatotoxicity; remark: listed apart in the source; as to HepSE hepatic failure: call rule not given here
Hepatotoxicity [6] = tested on: Hepatotoxicity; remark: listed apart in the source; as to HepSE hepatic failure: call rule not given here
Hepatotoxicity [7] = tested on: Hepatotoxicity; remark: listed apart in the source
Hepatotoxicity [8] = tested on: Hepatotoxicity; remark: listed apart in the source
Hepatotoxicity [9] = tested on: Hepatotoxicity; remark: listed apart in the source
Hepatotoxicity [10] = tested on: Hepatotoxicity; remark: listed apart in the source
Hepatotoxicity [11] = tested on: Hepatotoxicity; remark: listed apart in the source
Hepatotoxicity [12] = tested on: Hepatotoxicity; remark: listed apart in the source
Hepatotoxicity [13] = tested on: Hepatotoxicity; remark: listed apart in the source
Hepatotoxicity [14] = tested on: Hepatotoxicity; remark: listed apart in the source

CC(=O)NCCCS(=O)(=O)O [ACAMPROSATE]
1: HepSE_bilirubinemia (Hepatotoxicity [1]) | HepSE_cholecystitis (Hepatotoxicity [2]) | HepSE_cirrhosis (Hepatotoxicity [4]) | HepSE_hepatitis (Hepatotoxicity [8]) | HepSE_liver function tests abnormal (Hepatotoxicity [13])
5: HepSE_Combined Scores (Hepatotoxicity [14])
0: HepSE_cholelithiasis (Hepatotoxicity [3]) | HepSE_elevated liver function tests (Hepatotoxicity [5]) | HepSE_hepatic failure (Hepatotoxicity [6]) | HepSE_hepatic necrosis (Hepatotoxicity [7]) | HepSE_hepatomegaly (Hepatotoxicity [9]) | HepSE_jaundice (Hepatotoxicity [10]) | HepSE_liver disease (Hepatotoxicity [11]) | HepSE_liver fatty (Hepatotoxicity [12])

C[C@H]1O[C@H](O[C@H]2[C@H](O)[C@@H](O)[C@@H](O[C@H]3[C@H](O)[C@@H](O)C(O)O[C@@H]3CO)O[C@@H]2CO)[C@H](O)[C@@H](O)[C@@H]1N[C@H]1C=C(CO)[C@@H](O)[C@H](O)[C@H]1O (some centres not stated) [ACARBOSE]
1: HepSE_hepatitis (Hepatotoxicity [8]) | HepSE_jaundice (Hepatotoxicity [10]) | HepSE_liver function tests abnormal (Hepatotoxicity [13])
3: HepSE_Combined Scores (Hepatotoxicity [14])
0: HepSE_bilirubinemia (Hepatotoxicity [1]) | HepSE_cholecystitis (Hepatotoxicity [2]) | HepSE_cholelithiasis (Hepatotoxicity [3]) | HepSE_cirrhosis (Hepatotoxicity [4]) | HepSE_elevated liver function tests (Hepatotoxicity [5]) | HepSE_hepatic failure (Hepatotoxicity [6]) | HepSE_hepatic necrosis (Hepatotoxicity [7]) | HepSE_hepatomegaly (Hepatotoxicity [9]) | HepSE_liver disease (Hepatotoxicity [11]) | HepSE_liver fatty (Hepatotoxicity [12])

CCCC(=O)Nc1ccc(OCC(O)CNC(C)C)c(C(C)=O)c1 (configuration not stated) [ACEBUTOLOL]
0: HepSE_bilirubinemia (Hepatotoxicity [1]) | HepSE_cholecystitis (Hepatotoxicity [2]) | HepSE_cholelithiasis (Hepatotoxicity [3]) | HepSE_cirrhosis (Hepatotoxicity [4]) | HepSE_elevated liver function tests (Hepatotoxicity [5]) | HepSE_hepatic failure (Hepatotoxicity [6]) | HepSE_hepatic necrosis (Hepatotoxicity [7]) | HepSE_hepatitis (Hepatotoxicity [8]) | HepSE_hepatomegaly (Hepatotoxicity [9]) | HepSE_jaundice (Hepatotoxicity [10]) | HepSE_liver disease (Hepatotoxicity [11]) | HepSE_liver fatty (Hepatotoxicity [12]) | HepSE_liver function tests abnormal (Hepatotoxicity [13]) | HepSE_Combined Scores (Hepatotoxicity [14])

CC(=O)Nc1nnc(S(N)(=O)=O)s1 [ACETAZOLAMIDE]
2: HepSE_Combined Scores (Hepatotoxicity [14])
0: HepSE_bilirubinemia (Hepatotoxicity [1]) | HepSE_cholecystitis (Hepatotoxicity [2]) | HepSE_cholelithiasis (Hepatotoxicity [3]) | HepSE_cirrhosis (Hepatotoxicity [4]) | HepSE_elevated liver function tests (Hepatotoxicity [5]) | HepSE_hepatic failure (Hepatotoxicity [6]) | HepSE_hepatitis (Hepatotoxicity [8]) | HepSE_hepatomegaly (Hepatotoxicity [9]) | HepSE_liver disease (Hepatotoxicity [11]) | HepSE_liver fatty (Hepatotoxicity [12]) | HepSE_liver function tests abnormal (Hepatotoxicity [13])
1: HepSE_hepatic necrosis (Hepatotoxicity [7]) | HepSE_jaundice (Hepatotoxicity [10])

CC(=O)O [ACETIC ACID]
0: HepSE_bilirubinemia (Hepatotoxicity [1]; Liver) | HepSE_cholecystitis (Hepatotoxicity [2]; Liver) | HepSE_cholelithiasis (Hepatotoxicity [3]; Liver) | HepSE_cirrhosis (Hepatotoxicity [4]; Liver) | HepSE_elevated liver function tests (Hepatotoxicity [5]; Liver) | HepSE_hepatic failure (Hepatotoxicity [6]; Liver) | HepSE_hepatic necrosis (Hepatotoxicity [7]; Liver) | HepSE_hepatitis (Hepatotoxicity [8]; Liver) | HepSE_hepatomegaly (Hepatotoxicity [9]; Liver) | HepSE_jaundice (Hepatotoxicity [10]; Liver) | HepSE_liver disease (Hepatotoxicity [11]; Liver) | HepSE_liver fatty (Hepatotoxicity [12]; Liver) | HepSE_liver function tests abnormal (Hepatotoxicity [13]; Liver) | HepSE_Combined Scores (Hepatotoxicity [14]; Liver)

CC(=O)OCC[N+](C)(C)C [ACETYLCHOLINE]
0: HepSE_bilirubinemia (Hepatotoxicity [1]; Liver) | HepSE_cholecystitis (Hepatotoxicity [2]; Liver) | HepSE_cholelithiasis (Hepatotoxicity [3]; Liver) | HepSE_cirrhosis (Hepatotoxicity [4]; Liver) | HepSE_elevated liver function tests (Hepatotoxicity [5]; Liver) | HepSE_hepatic failure (Hepatotoxicity [6]; Liver) | HepSE_hepatic necrosis (Hepatotoxicity [7]; Liver) | HepSE_hepatitis (Hepatotoxicity [8]; Liver) | HepSE_hepatomegaly (Hepatotoxicity [9]; Liver) | HepSE_jaundice (Hepatotoxicity [10]; Liver) | HepSE_liver disease (Hepatotoxicity [11]; Liver) | HepSE_liver fatty (Hepatotoxicity [12]; Liver) | HepSE_liver function tests abnormal (Hepatotoxicity [13]; Liver) | HepSE_Combined Scores (Hepatotoxicity [14]; Liver)

CC(=O)N[C@@H](CS)C(=O)O [ACETYLCYSTEINE]
0: HepSE_bilirubinemia (Hepatotoxicity [1]) | HepSE_cholecystitis (Hepatotoxicity [2]) | HepSE_cholelithiasis (Hepatotoxicity [3]) | HepSE_cirrhosis (Hepatotoxicity [4]) | HepSE_elevated liver function tests (Hepatotoxicity [5]) | HepSE_hepatic failure (Hepatotoxicity [6]) | HepSE_hepatic necrosis (Hepatotoxicity [7]) | HepSE_hepatitis (Hepatotoxicity [8]) | HepSE_hepatomegaly (Hepatotoxicity [9]) | HepSE_jaundice (Hepatotoxicity [10]) | HepSE_liver disease (Hepatotoxicity [11]) | HepSE_liver fatty (Hepatotoxicity [12]) | HepSE_liver function tests abnormal (Hepatotoxicity [13]) | HepSE_Combined Scores (Hepatotoxicity [14])

COc1cc(C)c(/C=C/C(C)=C/C=C/C(C)=C/C(=O)O)c(C)c1C [ACITRETIN]
0: HepSE_bilirubinemia (Hepatotoxicity [1]) | HepSE_cholecystitis (Hepatotoxicity [2]) | HepSE_cholelithiasis (Hepatotoxicity [3]) | HepSE_cirrhosis (Hepatotoxicity [4]) | HepSE_hepatic failure (Hepatotoxicity [6]) | HepSE_hepatic necrosis (Hepatotoxicity [7]) | HepSE_hepatomegaly (Hepatotoxicity [9]) | HepSE_liver disease (Hepatotoxicity [11]) | HepSE_liver fatty (Hepatotoxicity [12]) | HepSE_liver function tests abnormal (Hepatotoxicity [13])
3: HepSE_Combined Scores (Hepatotoxicity [14])
1: HepSE_elevated liver function tests (Hepatotoxicity [5]) | HepSE_hepatitis (Hepatotoxicity [8]) | HepSE_jaundice (Hepatotoxicity [10])

Nc1nc2c(ncn2COCCO)c(=O)[nH]1 [ACYCLOVIR]
0: HepSE_cholecystitis (Hepatotoxicity [2]) | HepSE_cholelithiasis (Hepatotoxicity [3]) | HepSE_cirrhosis (Hepatotoxicity [4]) | HepSE_hepatic failure (Hepatotoxicity [6]) | HepSE_hepatic necrosis (Hepatotoxicity [7]) | HepSE_hepatomegaly (Hepatotoxicity [9]) | HepSE_liver disease (Hepatotoxicity [11]) | HepSE_liver fatty (Hepatotoxicity [12]) | HepSE_liver function tests abnormal (Hepatotoxicity [13])
1: HepSE_bilirubinemia (Hepatotoxicity [1]) | HepSE_elevated liver function tests (Hepatotoxicity [5]) | HepSE_hepatitis (Hepatotoxicity [8]) | HepSE_jaundice (Hepatotoxicity [10])
4: HepSE_Combined Scores (Hepatotoxicity [14])

CC(C)(C)C(=O)OCOP(=O)(COCCn1cnc2c(N)ncnc21)OCOC(=O)C(C)(C)C [ADEFOVIR DIPIVOXIL]
0: HepSE_bilirubinemia (Hepatotoxicity [1]) | HepSE_cholecystitis (Hepatotoxicity [2]) | HepSE_cholelithiasis (Hepatotoxicity [3]) | HepSE_cirrhosis (Hepatotoxicity [4]) | HepSE_elevated liver function tests (Hepatotoxicity [5]) | HepSE_hepatic necrosis (Hepatotoxicity [7]) | HepSE_hepatitis (Hepatotoxicity [8]) | HepSE_hepatomegaly (Hepatotoxicity [9]) | HepSE_jaundice (Hepatotoxicity [10]) | HepSE_liver disease (Hepatotoxicity [11]) | HepSE_liver fatty (Hepatotoxicity [12]) | HepSE_liver function tests abnormal (Hepatotoxicity [13])
1: HepSE_hepatic failure (Hepatotoxicity [6]) | HepSE_Combined Scores (Hepatotoxicity [14])

Nc1ncnc2c1ncn2[C@@H]1O[C@H](CO)[C@@H](O)[C@H]1O [ADENOSINE]
0: HepSE_bilirubinemia (Hepatotoxicity [1]) | HepSE_cholecystitis (Hepatotoxicity [2]) | HepSE_cholelithiasis (Hepatotoxicity [3]) | HepSE_cirrhosis (Hepatotoxicity [4]) | HepSE_elevated liver function tests (Hepatotoxicity [5]) | HepSE_hepatic failure (Hepatotoxicity [6]) | HepSE_hepatic necrosis (Hepatotoxicity [7]) | HepSE_hepatitis (Hepatotoxicity [8]) | HepSE_hepatomegaly (Hepatotoxicity [9]) | HepSE_jaundice (Hepatotoxicity [10]) | HepSE_liver disease (Hepatotoxicity [11]) | HepSE_liver fatty (Hepatotoxicity [12]) | HepSE_liver function tests abnormal (Hepatotoxicity [13]) | HepSE_Combined Scores (Hepatotoxicity [14])

CCCSc1ccc2nc(NC(=O)OC)[nH]c2c1 [ALBENDAZOLE]
1: HepSE_hepatic failure (Hepatotoxicity [6]) | HepSE_hepatitis (Hepatotoxicity [8]) | HepSE_liver disease (Hepatotoxicity [11])
0: HepSE_bilirubinemia (Hepatotoxicity [1]) | HepSE_cholecystitis (Hepatotoxicity [2]) | HepSE_cholelithiasis (Hepatotoxicity [3]) | HepSE_cirrhosis (Hepatotoxicity [4]) | HepSE_elevated liver function tests (Hepatotoxicity [5]) | HepSE_hepatic necrosis (Hepatotoxicity [7]) | HepSE_hepatomegaly (Hepatotoxicity [9]) | HepSE_jaundice (Hepatotoxicity [10]) | HepSE_liver fatty (Hepatotoxicity [12]) | HepSE_liver function tests abnormal (Hepatotoxicity [13])
3: HepSE_Combined Scores (Hepatotoxicity [14])

CC(C)(C)NCC(O)c1ccc(O)c(CO)c1 (configuration not stated) [ALBUTEROL]
0: HepSE_bilirubinemia (Hepatotoxicity [1]; Liver) | HepSE_cholecystitis (Hepatotoxicity [2]; Liver) | HepSE_cholelithiasis (Hepatotoxicity [3]; Liver) | HepSE_cirrhosis (Hepatotoxicity [4]; Liver) | HepSE_elevated liver function tests (Hepatotoxicity [5]; Liver) | HepSE_hepatic failure (Hepatotoxicity [6]; Liver) | HepSE_hepatic necrosis (Hepatotoxicity [7]; Liver) | HepSE_hepatitis (Hepatotoxicity [8]; Liver) | HepSE_hepatomegaly (Hepatotoxicity [9]; Liver) | HepSE_jaundice (Hepatotoxicity [10]; Liver) | HepSE_liver disease (Hepatotoxicity [11]; Liver) | HepSE_liver fatty (Hepatotoxicity [12]; Liver) | HepSE_liver function tests abnormal (Hepatotoxicity [13]; Liver) | HepSE_Combined Scores (Hepatotoxicity [14]; Liver)
